Biological target: T1, Pol IV (DinB; HT-dinB) (Escherichia coli, UniProt Q47155)
T1 construct: full-length DinB with His tag (plasmid pET16B-DinB), expressed in E. coli BL21(DE3)/pLysS; tag kept
T1 sequence (Q47155 1-351): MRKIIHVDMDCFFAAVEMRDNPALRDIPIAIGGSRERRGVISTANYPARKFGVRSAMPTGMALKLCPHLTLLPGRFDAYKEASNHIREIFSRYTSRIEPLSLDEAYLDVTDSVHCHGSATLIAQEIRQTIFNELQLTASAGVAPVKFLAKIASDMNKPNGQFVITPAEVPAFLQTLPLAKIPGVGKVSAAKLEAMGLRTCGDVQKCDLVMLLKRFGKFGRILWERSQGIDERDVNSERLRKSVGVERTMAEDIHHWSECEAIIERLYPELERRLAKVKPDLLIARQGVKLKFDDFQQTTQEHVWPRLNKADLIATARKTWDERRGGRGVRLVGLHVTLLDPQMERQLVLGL
Assay: primer extension, […]-labelled primer, gel imaging
Type: biochemical
Conditions: insertion opposite 2-oxodA (primer 3/template 2, 50 fmol in 10 μl); Pol IV 50 nM; 20°C, 60 min; pH 7.4, 7.5 mM MgCl2; dNTP 0.02~500 μM; printed Km unit is implausible (a rate unit)

Row | Km [fmol/mL/min] | SMILES
1 | 8.5 | Nc1ccn([C@H]2C[C@H](O)[C@@H](COP(=O)(O)OP(=O)(O)OP(=O)(O)O)O2)c(=O)n1 [dCTP]
2 | 25.6 | Cc1cn([C@H]2C[C@H](O)[C@@H](COP(=O)(O)OP(=O)(O)OP(=O)(O)O)O2)c(=O)[nH]c1=O [dTTP]
